Columns and labels:
Assay in all cases: DiscoverX scanEDGE kinase panel
Type in all cases: binding
Conditions in all cases: Cmpd Conc 1000 nM, read-out: % Ctrl
PAK2 = target: T1, PAK2 (Homo sapiens, UniProt Q13177)
T1 construct: purchased DiscoverX (DiscoveRx) KINOMEscan scanEDGE / KdELECT
Description: (§1) We hypothesized that inhibitors of the normal and flipped modes would display distinct selectivity profiles.
(§2) 1. 16 and 21 kinome selectivity data
(§3) (P – phosphorylated; nP – nonphosphorylated; % Ctrl values show the % of DNAEtagged
(§4) kinase which was not displaced from a solid supported ligand by a test compound relative to
(§5) untreated control, quantified by qPCR).
(§6) Please note: ALKs 1, 2, 3, 4, 5 and 6 are listed by their gene symbols: ACVRL1 (ALK1), ACVR1
(§7) (ALK2), BMPR1A (ALK3), ACVR1B (ALK4), TGFBR1 (ALK5) and BMPR1B (ALK6)
(§8) Cmpd DiscoverX Gene Symbol Entrez Gene Symbol % Ctrl Cmpd Conc (nM)

MKNK2 = target: T2, MKNK2 (Homo sapiens, UniProt Q9HBH9)
T2 construct: purchased DiscoverX (DiscoveRx) KINOMEscan scanEDGE / KdELECT
Description: as §1, §2, §3, §4, §5, §6, §7, §8

CHEK1 = target: T3, CHEK1 (Homo sapiens, UniProt O14757)
T3 construct: purchased DiscoverX (DiscoveRx) KINOMEscan scanEDGE / KdELECT
Description: as §1, §2, §3, §4, §5, §6, §7, §8

FGFR2 = target: T4, FGFR2 (Homo sapiens, UniProt P21802)
T4 construct: purchased DiscoverX (DiscoveRx) KINOMEscan scanEDGE / KdELECT
Description: as §1, §2, §3, §4, §5, §6, §7, §8

ZAP70 = target: T5, ZAP70 (Homo sapiens, UniProt P43403)
T5 construct: purchased DiscoverX (DiscoveRx) KINOMEscan scanEDGE / KdELECT
Description: as §1, §2, §3, §4, §5, §6, §7, §8

ERK1 = target: T6, ERK1 (Homo sapiens, UniProt P27361)
T6 construct: purchased DiscoverX (DiscoveRx) KINOMEscan scanEDGE / KdELECT
Description: as §1, §2, §3, §4, §5, §6, §7, §8

CSF1R = target: T7, CSF1R (Homo sapiens, UniProt P07333)
T7 construct: purchased DiscoverX (DiscoveRx) KINOMEscan scanEDGE / KdELECT
Description: as §1, §2, §3, §4, §5, §6, §7, §8

LKB1 = target: T8, LKB1 (Homo sapiens, UniProt Q15831)
T8 construct: purchased DiscoverX (DiscoveRx) KINOMEscan scanEDGE / KdELECT
Description: as §1, §2, §3, §4, §5, §6, §7, §8

JAK3(JH1domain) = target: T9, JAK3(JH1domain) (Homo sapiens, UniProt P52333)
T9 construct: JAK3(JH1domain); purchased DiscoverX (DiscoveRx) KINOMEscan scanEDGE / KdELECT
Description: as §1, §2, §3, §4, §5, §6, §7, §8

PIM2 = target: T10, PIM2 (Homo sapiens, UniProt Q9P1W9)
T10 construct: purchased DiscoverX (DiscoveRx) KINOMEscan scanEDGE / KdELECT
Description: as §1, §2, §3, §4, §5, §6, §7, §8

ULK2 = target: T11, ULK2 (Homo sapiens, UniProt Q8IYT8)
T11 construct: purchased DiscoverX (DiscoveRx) KINOMEscan scanEDGE / KdELECT
Description: as §1, §2, §3, §4, §5, §6, §7, §8

PKACEalpha = target: T12, PKACEalpha (Homo sapiens, UniProt P17612)
T12 construct: purchased DiscoverX (DiscoveRx) KINOMEscan scanEDGE / KdELECT
Description: as §1, §2, §3, §4, §5, §6, §7, §8

PLK1 = target: T13, PLK1 (Homo sapiens, UniProt P53350)
T13 construct: purchased DiscoverX (DiscoveRx) KINOMEscan scanEDGE / KdELECT
Description: as §1, §2, §3, §4, §5, §6, §7, §8

MEK1 = target: T14, MEK1 (Homo sapiens, UniProt Q02750)
T14 construct: purchased DiscoverX (DiscoveRx) KINOMEscan scanEDGE / KdELECT
Description: as §1, §2, §3, §4, §5, §6, §7, §8

IKKEbeta = target: T15, IKKEbeta (Homo sapiens, UniProt O14920)
T15 construct: purchased DiscoverX (DiscoveRx) KINOMEscan scanEDGE / KdELECT
Description: as §1, §2, §3, §4, §5, §6, §7, §8

IGF1R = target: T16, IGF1R (Homo sapiens, UniProt P08069)
T16 construct: purchased DiscoverX (DiscoveRx) KINOMEscan scanEDGE / KdELECT
Description: as §1, §2, §3, §4, §5, §6, §7, §8

CSNK1G2 = target: T17, CSNK1G2 (Homo sapiens, UniProt P78368)
T17 construct: purchased DiscoverX (DiscoveRx) KINOMEscan scanEDGE / KdELECT
Description: as §1, §2, §3, §4, §5, §6, §7, §8

ERBB2 = target: T18, ERBB2 (Homo sapiens, UniProt P04626)
T18 construct: purchased DiscoverX (DiscoveRx) KINOMEscan scanEDGE / KdELECT
Description: as §1, §2, §3, §4, §5, §6, §7, §8

ERBB4 = target: T19, ERBB4 (Homo sapiens, UniProt Q15303)
T19 construct: purchased DiscoverX (DiscoveRx) KINOMEscan scanEDGE / KdELECT
Description: as §1, §2, §3, §4, §5, §6, §7, §8

BMPR1B (ALK6) = target: T20, BMPR1B (ALK6) (Homo sapiens, UniProt O00238)
T20 construct: purchased DiscoverX (DiscoveRx) KINOMEscan scanEDGE / KdELECT
Description: as §1, §2, §3, §4, §5, §6, §7, §8

RET = target: T21, RET (Homo sapiens, UniProt P07949)
T21 construct: purchased DiscoverX (DiscoveRx) KINOMEscan scanEDGE / KdELECT
Description: as §1, §2, §3, §4, §5, §6, §7, §8

CDK7 = target: T22, CDK7 (Homo sapiens, UniProt P50613)
T22 construct: purchased DiscoverX (DiscoveRx) KINOMEscan scanEDGE / KdELECT
Description: as §1, §2, §3, §4, §5, §6, §7, §8

MAPKAPK2 = target: T23, MAPKAPK2 (Homo sapiens, UniProt P49137)
T23 construct: purchased DiscoverX (DiscoveRx) KINOMEscan scanEDGE / KdELECT
Description: as §1, §2, §3, §4, §5, §6, §7, §8

PIK3CA = target: T24, PIK3CA (Homo sapiens, UniProt P42336)
T24 construct: purchased DiscoverX (DiscoveRx) KINOMEscan scanEDGE / KdELECT
Description: as §1, §2, §3, §4, §5, §6, §7, §8

PAK1 = target: T25, PAK1 (Homo sapiens, UniProt Q13153)
T25 construct: purchased DiscoverX (DiscoveRx) KINOMEscan scanEDGE / KdELECT
Description: as §1, §2, §3, §4, §5, §6, §7, §8

FYN = target: T26, FYN (Homo sapiens, UniProt P06241)
T26 construct: purchased DiscoverX (DiscoveRx) KINOMEscan scanEDGE / KdELECT
Description: as §1, §2, §3, §4, §5, §6, §7, §8

PLK3 = target: T27, PLK3 (Homo sapiens, UniProt Q9H4B4)
T27 construct: purchased DiscoverX (DiscoveRx) KINOMEscan scanEDGE / KdELECT
Description: as §1, §2, §3, §4, §5, §6, §7, §8

LCK = target: T28, LCK (Homo sapiens, UniProt P06239)
T28 construct: purchased DiscoverX (DiscoveRx) KINOMEscan scanEDGE / KdELECT
Description: as §1, §2, §3, §4, §5, §6, §7, §8

MAP3K4 = target: T29, MAP3K4 (Homo sapiens, UniProt Q9Y6R4)
T29 construct: purchased DiscoverX (DiscoveRx) KINOMEscan scanEDGE / KdELECT
Description: as §1, §2, §3, §4, §5, §6, §7, §8

DYRK1B = target: T30, DYRK1B (Homo sapiens, UniProt Q9Y463)
T30 construct: purchased DiscoverX (DiscoveRx) KINOMEscan scanEDGE / KdELECT
Description: as §1, §2, §3, §4, §5, §6, §7, §8

JAK2(JH1domain) = target: T31, JAK2(JH1domain) (Homo sapiens, UniProt O60674)
T31 construct: JAK2(JH1domain); purchased DiscoverX (DiscoveRx) KINOMEscan scanEDGE / KdELECT
Description: as §1, §2, §3, §4, §5, §6, §7, §8

JNK1 = target: T32, JNK1 (Homo sapiens, UniProt P45983)
T32 construct: purchased DiscoverX (DiscoveRx) KINOMEscan scanEDGE / KdELECT
Description: as §1, §2, §3, §4, §5, §6, §7, §8

NEK6 = target: T33, NEK6 (Homo sapiens, UniProt Q9HC98)
T33 construct: purchased DiscoverX (DiscoveRx) KINOMEscan scanEDGE / KdELECT
Description: as §1, §2, §3, §4, §5, §6, §7, §8

MINK = target: T34, MINK (Homo sapiens, UniProt Q8N4C8)
T34 construct: purchased DiscoverX (DiscoveRx) KINOMEscan scanEDGE / KdELECT
Description: as §1, §2, §3, §4, §5, §6, §7, §8

AURKB = target: T35, AURKB (Homo sapiens, UniProt Q96GD4)
T35 construct: purchased DiscoverX (DiscoveRx) KINOMEscan scanEDGE / KdELECT
Description: as §1, §2, §3, §4, §5, §6, §7, §8

RAF1 = target: T36, RAF1 (Homo sapiens, UniProt P04049)
T36 construct: purchased DiscoverX
Description: as §1, §2, §3, §4, §5, §6, §7, §8

MKNK1 = target: T37, MKNK1 (Homo sapiens, UniProt Q9BUB5)
T37 construct: purchased DiscoverX (DiscoveRx) KINOMEscan scanEDGE / KdELECT
Description: as §1, §2, §3, §4, §5, §6, §7, §8

INSR = target: T38, INSR (Homo sapiens, UniProt P06213)
T38 construct: purchased DiscoverX (DiscoveRx) KINOMEscan scanEDGE / KdELECT
Description: as §1, §2, §3, §4, §5, §6, §7, §8

SIK2 = target: T39, SIK2 (Homo sapiens, UniProt Q9H0K1)
T39 construct: purchased DiscoverX (DiscoveRx) KINOMEscan scanEDGE / KdELECT
Description: as §1, §2, §3, §4, §5, §6, §7, §8

T2 sequence (Q9HBH9 whole entry): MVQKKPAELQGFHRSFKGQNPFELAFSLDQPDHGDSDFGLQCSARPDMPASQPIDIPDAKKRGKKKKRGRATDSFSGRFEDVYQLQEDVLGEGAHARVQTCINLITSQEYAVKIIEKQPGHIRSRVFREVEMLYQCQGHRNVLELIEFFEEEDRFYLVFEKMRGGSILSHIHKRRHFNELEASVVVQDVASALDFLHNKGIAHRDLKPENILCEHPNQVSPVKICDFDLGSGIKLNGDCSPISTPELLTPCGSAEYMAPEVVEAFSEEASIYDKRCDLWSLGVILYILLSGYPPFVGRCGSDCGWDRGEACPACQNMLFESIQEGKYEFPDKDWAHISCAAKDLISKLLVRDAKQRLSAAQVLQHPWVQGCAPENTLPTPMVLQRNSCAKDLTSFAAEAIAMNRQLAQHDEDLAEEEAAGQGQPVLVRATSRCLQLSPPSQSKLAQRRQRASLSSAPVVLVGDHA
T23 sequence (P49137 whole entry): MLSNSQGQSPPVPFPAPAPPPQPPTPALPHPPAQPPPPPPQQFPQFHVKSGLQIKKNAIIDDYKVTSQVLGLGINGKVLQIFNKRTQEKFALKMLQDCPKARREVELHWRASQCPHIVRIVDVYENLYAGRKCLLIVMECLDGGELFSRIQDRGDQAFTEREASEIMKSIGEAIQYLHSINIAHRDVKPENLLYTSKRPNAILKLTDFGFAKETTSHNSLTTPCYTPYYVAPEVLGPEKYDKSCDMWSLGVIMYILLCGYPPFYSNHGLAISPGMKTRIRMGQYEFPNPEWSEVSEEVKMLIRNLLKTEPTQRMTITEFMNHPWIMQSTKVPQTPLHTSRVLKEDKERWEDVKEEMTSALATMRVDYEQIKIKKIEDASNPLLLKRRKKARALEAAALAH
T3 sequence (O14757 whole entry): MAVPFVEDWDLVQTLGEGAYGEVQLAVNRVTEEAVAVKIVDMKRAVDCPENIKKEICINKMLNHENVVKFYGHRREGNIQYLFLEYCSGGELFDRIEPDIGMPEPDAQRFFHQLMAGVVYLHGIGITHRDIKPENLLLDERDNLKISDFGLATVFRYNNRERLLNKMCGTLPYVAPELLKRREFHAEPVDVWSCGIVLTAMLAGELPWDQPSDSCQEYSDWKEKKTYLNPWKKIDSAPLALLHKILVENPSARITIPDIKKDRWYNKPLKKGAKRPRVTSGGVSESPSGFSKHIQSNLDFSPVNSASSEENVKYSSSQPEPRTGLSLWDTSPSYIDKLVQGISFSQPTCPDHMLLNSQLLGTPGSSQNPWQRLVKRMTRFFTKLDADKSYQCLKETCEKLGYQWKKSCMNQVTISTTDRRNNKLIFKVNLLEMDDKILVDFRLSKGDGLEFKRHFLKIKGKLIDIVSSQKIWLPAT
T29 sequence (Q9Y6R4 whole entry): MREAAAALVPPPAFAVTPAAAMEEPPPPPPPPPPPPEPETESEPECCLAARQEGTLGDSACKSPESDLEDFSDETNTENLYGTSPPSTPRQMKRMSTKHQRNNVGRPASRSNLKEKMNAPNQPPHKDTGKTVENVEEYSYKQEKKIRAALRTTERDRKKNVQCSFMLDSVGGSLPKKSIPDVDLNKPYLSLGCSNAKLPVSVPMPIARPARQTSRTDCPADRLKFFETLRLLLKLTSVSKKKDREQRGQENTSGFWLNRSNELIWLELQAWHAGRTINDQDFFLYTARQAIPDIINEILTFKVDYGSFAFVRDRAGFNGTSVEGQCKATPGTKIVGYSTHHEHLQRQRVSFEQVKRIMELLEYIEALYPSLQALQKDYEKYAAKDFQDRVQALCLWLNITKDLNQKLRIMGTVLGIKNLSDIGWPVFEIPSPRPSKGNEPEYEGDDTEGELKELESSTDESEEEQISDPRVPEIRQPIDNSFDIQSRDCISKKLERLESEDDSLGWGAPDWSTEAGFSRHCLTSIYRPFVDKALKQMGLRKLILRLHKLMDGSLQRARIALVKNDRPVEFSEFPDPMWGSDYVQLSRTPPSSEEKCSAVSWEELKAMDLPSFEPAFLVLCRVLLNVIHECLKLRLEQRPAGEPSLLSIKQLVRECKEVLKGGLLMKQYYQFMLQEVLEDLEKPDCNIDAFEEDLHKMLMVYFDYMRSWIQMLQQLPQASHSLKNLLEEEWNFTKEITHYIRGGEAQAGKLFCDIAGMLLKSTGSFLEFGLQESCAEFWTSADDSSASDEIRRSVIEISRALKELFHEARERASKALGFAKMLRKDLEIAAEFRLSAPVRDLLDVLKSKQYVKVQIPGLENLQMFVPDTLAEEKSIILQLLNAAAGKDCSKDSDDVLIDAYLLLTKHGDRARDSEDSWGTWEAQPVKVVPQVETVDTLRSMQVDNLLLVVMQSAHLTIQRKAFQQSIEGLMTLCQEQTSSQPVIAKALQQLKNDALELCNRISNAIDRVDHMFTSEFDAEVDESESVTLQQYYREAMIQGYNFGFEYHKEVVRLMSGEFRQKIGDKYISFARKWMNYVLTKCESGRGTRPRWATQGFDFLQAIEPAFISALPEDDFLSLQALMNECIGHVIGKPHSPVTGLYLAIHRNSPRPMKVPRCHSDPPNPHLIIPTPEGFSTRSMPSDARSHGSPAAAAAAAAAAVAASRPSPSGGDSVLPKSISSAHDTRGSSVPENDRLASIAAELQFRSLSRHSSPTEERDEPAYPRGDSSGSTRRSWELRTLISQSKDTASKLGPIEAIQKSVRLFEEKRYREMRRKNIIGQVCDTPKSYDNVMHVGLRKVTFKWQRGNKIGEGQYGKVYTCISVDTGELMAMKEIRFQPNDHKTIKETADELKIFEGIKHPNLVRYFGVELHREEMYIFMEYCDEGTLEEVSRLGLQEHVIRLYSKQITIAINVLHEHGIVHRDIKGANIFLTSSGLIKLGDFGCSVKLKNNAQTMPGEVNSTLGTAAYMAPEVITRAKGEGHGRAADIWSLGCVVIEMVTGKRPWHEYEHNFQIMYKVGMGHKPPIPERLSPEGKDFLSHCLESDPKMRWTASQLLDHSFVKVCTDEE
T25 sequence (Q13153 whole entry): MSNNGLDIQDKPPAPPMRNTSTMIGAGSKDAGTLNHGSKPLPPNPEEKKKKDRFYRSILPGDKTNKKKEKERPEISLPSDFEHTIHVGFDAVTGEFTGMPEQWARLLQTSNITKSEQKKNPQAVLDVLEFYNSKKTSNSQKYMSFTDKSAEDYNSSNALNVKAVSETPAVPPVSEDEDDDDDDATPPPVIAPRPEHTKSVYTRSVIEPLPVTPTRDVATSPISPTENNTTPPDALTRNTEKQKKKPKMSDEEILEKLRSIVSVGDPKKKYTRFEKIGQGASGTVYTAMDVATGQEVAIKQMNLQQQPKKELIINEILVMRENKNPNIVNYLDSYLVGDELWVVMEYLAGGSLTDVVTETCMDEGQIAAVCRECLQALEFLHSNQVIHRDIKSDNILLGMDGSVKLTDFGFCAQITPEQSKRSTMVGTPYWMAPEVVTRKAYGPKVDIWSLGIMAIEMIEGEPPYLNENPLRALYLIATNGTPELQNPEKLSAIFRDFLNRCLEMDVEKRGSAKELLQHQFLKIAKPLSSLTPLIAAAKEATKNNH
T35 sequence (Q96GD4 whole entry): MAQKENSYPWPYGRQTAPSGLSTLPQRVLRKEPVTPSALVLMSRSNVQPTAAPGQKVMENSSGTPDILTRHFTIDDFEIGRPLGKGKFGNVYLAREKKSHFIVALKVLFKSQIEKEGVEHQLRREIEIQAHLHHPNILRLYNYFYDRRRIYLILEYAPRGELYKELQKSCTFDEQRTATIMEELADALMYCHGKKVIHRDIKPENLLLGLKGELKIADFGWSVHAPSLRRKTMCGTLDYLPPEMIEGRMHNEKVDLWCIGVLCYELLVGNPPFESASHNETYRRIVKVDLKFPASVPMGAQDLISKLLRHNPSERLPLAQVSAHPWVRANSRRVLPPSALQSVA
T28 sequence (P06239 whole entry): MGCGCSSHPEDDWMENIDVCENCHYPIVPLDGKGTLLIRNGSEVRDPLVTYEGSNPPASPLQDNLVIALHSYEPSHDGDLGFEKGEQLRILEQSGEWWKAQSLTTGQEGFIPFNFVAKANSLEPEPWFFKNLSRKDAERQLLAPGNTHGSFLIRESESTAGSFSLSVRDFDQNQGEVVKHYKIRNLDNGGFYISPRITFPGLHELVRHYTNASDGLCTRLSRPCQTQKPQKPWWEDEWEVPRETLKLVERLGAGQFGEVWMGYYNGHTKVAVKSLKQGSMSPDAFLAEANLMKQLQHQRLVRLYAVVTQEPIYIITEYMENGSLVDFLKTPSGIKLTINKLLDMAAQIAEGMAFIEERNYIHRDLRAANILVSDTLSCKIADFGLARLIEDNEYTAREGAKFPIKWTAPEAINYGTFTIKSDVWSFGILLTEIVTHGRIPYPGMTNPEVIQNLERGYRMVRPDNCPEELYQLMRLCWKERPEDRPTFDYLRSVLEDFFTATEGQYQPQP
T31 sequence (O60674 840-1132 limits assumed): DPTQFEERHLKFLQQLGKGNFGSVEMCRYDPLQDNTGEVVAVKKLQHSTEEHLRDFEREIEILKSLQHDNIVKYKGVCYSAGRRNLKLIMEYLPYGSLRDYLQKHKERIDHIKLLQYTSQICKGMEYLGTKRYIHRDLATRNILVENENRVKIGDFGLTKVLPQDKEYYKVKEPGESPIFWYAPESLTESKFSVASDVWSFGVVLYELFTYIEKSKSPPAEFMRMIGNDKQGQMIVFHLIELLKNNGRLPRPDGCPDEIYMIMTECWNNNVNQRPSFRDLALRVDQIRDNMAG
T10 sequence (Q9P1W9 whole entry): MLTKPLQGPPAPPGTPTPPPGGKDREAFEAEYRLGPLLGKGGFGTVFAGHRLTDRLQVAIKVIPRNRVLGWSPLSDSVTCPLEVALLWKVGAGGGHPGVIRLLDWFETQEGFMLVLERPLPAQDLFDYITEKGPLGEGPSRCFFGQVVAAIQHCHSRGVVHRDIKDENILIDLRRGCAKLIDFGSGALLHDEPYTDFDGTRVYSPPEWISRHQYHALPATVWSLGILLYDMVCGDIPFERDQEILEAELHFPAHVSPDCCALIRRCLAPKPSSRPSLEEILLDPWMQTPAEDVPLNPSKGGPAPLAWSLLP

remaining binding at 1 µM (PAK2): 77%
remaining binding at 1 µM (MKNK2): 92%
remaining binding at 1 µM (CHEK1): 100%
remaining binding at 1 µM (FGFR2): 100%
remaining binding at 1 µM (ZAP70): 99%
remaining binding at 1 µM (ERK1): 98%
remaining binding at 1 µM (CSF1R): 95%
remaining binding at 1 µM (LKB1): 100%
remaining binding at 1 µM (JAK3(JH1domain)): 94%
remaining binding at 1 µM (PIM2): 96%
remaining binding at 1 µM (ULK2): 77%
remaining binding at 1 µM (PKACEalpha): 100%
remaining binding at 1 µM (PLK1): 75%
remaining binding at 1 µM (MEK1): 85%
remaining binding at 1 µM (IKKEbeta): 95%
remaining binding at 1 µM (IGF1R): 94%
remaining binding at 1 µM (CSNK1G2): 92%
remaining binding at 1 µM (ERBB2): 100%
remaining binding at 1 µM (ERBB4): 100%
remaining binding at 1 µM (BMPR1B (ALK6)): 1.6%
remaining binding at 1 µM (RET): 99%
remaining binding at 1 µM (CDK7): 100%
remaining binding at 1 µM (MAPKAPK2): 100%
remaining binding at 1 µM (PIK3CA): 100%
remaining binding at 1 µM (PAK1): 96%
remaining binding at 1 µM (FYN): 100%
remaining binding at 1 µM (PLK3): 96%
remaining binding at 1 µM (LCK): 96%
remaining binding at 1 µM (MAP3K4): 90%
remaining binding at 1 µM (DYRK1B): 92%
remaining binding at 1 µM (JAK2(JH1domain)): 75%
remaining binding at 1 µM (JNK1): 91%
remaining binding at 1 µM (NEK6): 100%
remaining binding at 1 µM (MINK): 89%
remaining binding at 1 µM (AURKB): 94%
remaining binding at 1 µM (RAF1): 25%
remaining binding at 1 µM (MKNK1): 93%
remaining binding at 1 µM (INSR): 93%
remaining binding at 1 µM (SIK2): 100%
SMILES: Cc1nc2ccc(-c3ccnc4ccccc34)c(C)c2c(=O)[nH]1 [compound 21, 2,5-Dimethyl-6-(quinolin-4-yl)quinazolin-4(3H)-one]
